Results on seven compounds are retold here after patent US5786367A, “Cyclic amide derivatives” (Otsuka Pharmaceutical Co., Ltd., priority 1994, dated 1998).

Like-named read-outs stand apart in the source and are kept apart here.

Assay [1] deals with skin homogenate of guinea pig. As to the kind of experiment: Activity for inhibiting the formation of lipid peroxides (ultraviolet-B irradiated skin homogenate, TBA method). Format: biochemical, albino guinea pig (Hartley strain, female). Particulars: test compound 10^-4 M; UV 9.5 mW/cm^2, 60 minutes.
Description: The activity for inhibiting the formation of lipid peroxides which are increasingly formed by exposed to the ultraviolet-B radiation to the skin homogenate of guinea pig was determined by a procedure of thiobarbituric acid method (TBA method).
The activity for inhibiting the formation of lipid peroxides can be evaluated by degree of decreasing the optical absorbance of the condensate of thus formed malondialdehyde with thiobarbituric acid, by adding a test sample of the cyclic amide derivative of the present invention to the homogenate.
That is, the hairs covering in the back of an albino guinea pig (Hartley strain, female) were clipped by using an electric hair clippers under anesthesia. After the enucleation of the hair clipped portion of the skin, the subcutaneous tissue of this skin was removed in cold physiological saline. Distilled water in an amount of 9 times by weight of the skin tissue was added to this skin subcutaneous tissue, then was subjected to homogenation and centrifugation (600 g, for 5 minutes) to obtain the supernatant liquid. 5 Microliters each of test sample solutions of various concentrations was added to 0.5 ml each of the supernatant liquid, then the ultraviolet ray in the intensity of 9.5 mW/cm^2 was irradiated for 60 minutes by using fluorescent lamps (TOSHIBA FL-20SE, manufactured by Toshiba Corporation) as a light source. As to the reference sample solution, the solvent for dissolution of the test compound was used in place of the test sample solution. After ultraviolet radiation, the amount of lipid peroxide being formed in the sample solution (TBA value) was measured by TBA method (cf. Analytical Biochemistry, 1979, Vol. 95, pp. 351-358), and the inhibition rate of lipid peroxide formation shown by the test sample was calculated by the following formula: [formula]
Assay [2] concerns skin erythema. Briefly: Activity for inhibiting skin erythema caused by ultraviolet radiation. Particulars: for inhibition in vivo at 3 %: Cavia porcellus, UV 1.3-1.5 mW/cm^2 for 30 minutes, measured 24 hours later. Type of assay: in vivo, albino guinea pig (Hartley strain, female, 7-8 week age). The method, then:
The hairs covering in the back of albino guinea pig (Hartley strain, female, 7-8 week age) were shaved by using an electric hair clippers and a shaver. In the next day, the guinea pig was fixed in Bowlman's cage, then a light shield tape (adhesive plaster for patch test), having 4 round holes of 1.5 cm in diameter was adhered on the hair clipped portion so as to provide 4 sites (round holes) to be exposed to the ultraviolet rays. […] Each one of the test sample solutions was prepared by dissolving each test compounds in three kinds of concentrations within 0.1 to 10%, and applied.

Assay [3] concerns lens samples obtained from rat. As to the kind of experiment: Activity for preventing the lens opacity (UV-irradiated cultured lens). Format: cell-based, rat (Wistar strain, male, 6-10 week age). Particulars: 1 h, read-out: Rate of the activity for preventing lens opacity. The method, then: The lens samples obtained from rat (Wistar strain, male, 6-10 week age) were placed on 24-well plate, and were cultured in DEMEM (Dulbecco's modified Eagle's medium manufactured by Nissui Pharmaceutical Co., Ltd.) at 37° C. overnight, a 5% CO2 environment was used. Under dissecting microscope observation, the lens samples having transparency were only selected to use the test. Thus selected lens samples were transferred to midium (1 ml) in which the test compound was dissolved. (As to the reference test, the medium without containing the test compound was used.) The ultraviolet rays in the intensity of 8.8 mW/cm^2 was irradiated for 60 minutes by using a fluorescent lamp (TOSHIBA FL-20SE) to the lens samples. After the irradiation, the medium was replaced to new medium containing the test compound and further cultured overnight. The medium without the test compound was replaced everyday during 3 days. By using a dissecting microscope, opacity of the lens samples were observed. The degrees of opacity of the lens samples was determined by deviding the field of vision into 8 fields as follows: Score 0: transparent; Score 1: some loss of transparency; and Score 2: completely opaque. Rate of activity for preventing the lens opacity was calculated from the following formula: [formula]

Where [4] appears, read: 3% concentration of test compound, 10 μl topical, read-out: Rate of activity for inhibiting the skin erythema.
[5] abbreviates: test compound 1 x 10^-4 M, UV 8.8 mW/cm^2, 60 minutes.

As for `C=CCc1cc2c(c(CC=C)c1O)CCC(=O)N2CC(C)C` [Example 41], in assay [1], the “Inhibition rate of lipid peroxide formation” value amounted to 96%. Moreover, the inhibition in vivo at 3 % in assay [2] (setting [4]) is 57%. Further, the “50% inhibitory concentration (IC50) for inhibiting the skin erythema” value in assay [2] (topical, three concentrations within 0.1 to 10%) turned out to be 2.0 concentration in %. Moreover, in assay [3] (setting [5]), the inhibition at 100 µM came to 55%.
Regarding `C=CCc1cc2c(c(CC=C)c1O)CCC(=O)N2CCCN.Cl` [Example 67, 1-(3-aminopropyl)-5,7-diallyl-3,4-dihydro-6-hydroxy-2(1H)-quinolinone hydrochloride], the “Inhibition rate of lipid peroxide formation” value in assay [1] is reported as 75%. In addition, in assay [2] (setting [4]), the inhibition in vivo at 3 % turned out to be 31%. The inhibition at 100 µM in assay [3] (setting [5]) was found to be 40%.
On to `C=CCc1cc2c(c(CC=C)c1O)CCC(=O)N2CCCCCCCC` [Example 101], for which the inhibition in vivo at 3 % in assay [2] (setting [4]) is 37%. The inhibition at 100 µM in assay [3] (setting [5]) worked out at 55%.
Consider `C=CCc1cc2c(c(CC=C)c1O)CCC(=O)N2CCOC(C)=O` [Example 103, 1-(2-Acetyloxyethyl)-5,7-diallyl-3,4-dihydro-6-hydroxy-2(1H)-quinolinone], for which, in assay [3] (setting [5]), the inhibition at 100 µM came out at 57%.
Same read-out and setting: the same measure for `C=CCc1cc2c(c(CC=C)c1O)CCC(=O)N2CCO` [Example 109, 5,7-diallyl-3,4-dihydro-6-hydroxy-1-(2-hydroxyethyl)-2(1H)-quinolinone]: 66%.
Regarding `C=CCc1cc2c(c(CC=C)c1O)CCC(=O)N2C(C)C(=O)O` (stereo not drawn) [Example 115, Sodium 2-(5,7-Diallyl-6-hydroxy-1,2,3,4-tetrahydro-2-oxoquinolin-1-yl)propionate], in assay [2] (topical, 24 h, read-out: Rate of activity for inhibiting the skin erythema, 3% concentration of test compound, 10 μl topical), the inhibition in vivo at 3 % was found to be 33%. Further, the inhibition at 100 µM in assay [3] came out at 63%.
In the case of `O=C1O[C@H]([C@@H](O)CO)C(O)=C1O` [Vitamin C, reference compound], the inhibition at 100 µM in assay [3] (setting [5]) was -11%. In assay [3] (test compound 10 x 10^-4 M, UV 8.8 mW/cm^2, 60 minutes), the inhibition at 1000 µM is 84%.
